Converted amounts (≈) assume the structure as drawn. “And” between values parts separate entries of the source, which are not always exact repeats. Equal values may be shown once. Read-outs that look alike come from different tables or passages of the source.
Assays:
B16 (melanoma) cells = test: MTT cytotoxicity assay, B16 cells
L1210 (lymphoma) cells = test: MTT cytotoxicity assay, L1210 cells
[1] = test system: MDA-MB-435 cancer cell line; test: SRB antiproliferative assay, MDA-MB-435; format: cell-based, human; settings: Homo sapiens, MDA-MB-435, 48 h exposure
[2] = Aqueous solubility (MultiScreen Solubility Filter Plate, shake-flask based); settings: aqueous buffer with 5% DMSO, pH 7.4, aqueous with cosolvent or surfactant or cyclodextrin, kinetic from dmso stock
Method: Aqueous solubility of Compounds of the Invention was measured with a modified version of the MultiScreen Solubility Filter Plate protocol (Millipore). This assay was based on the shake-flask equilibrium method and utilizes UV-Vis spectroscopy to quantify the unknown samples. The assay was conducted at room temperature at pH 7.4. […] Compound of the Invention was dissolved in DMSO, and the final DMSO concentration was 5% (v/v). Each sample was analyzed by UV-Vis spectroscopy at 10 nm increments from 260-600 nm to determine the optimal wavelength for detection and construct standard curves. […] A 4:1 mixture of supernatant to acetonitrile was added to a 96-well acrylic plate and analyzed by UV-Vis spectroscopy.
Aqueous solubility was measured with a modified version of the MultiScreen Solubility Filter Plate protocol (Millipore). This assay is based on the shake-flask equilibrium method and utilizes UV-Vis spectroscopy to quantify the unknown samples. The assay is conducted at room temperature at pH 7.4. […] Each compound was dissolved in DMSO, and the final DMSO concentration was 5% (v/v). Each sample was analyzed by UV-Vis spectroscopy at 10 nm increments from 260-600 nm to determine the optimal wavelength for detection and construct standard curves. […] A 4:1 mixture of supernatant to acetonitrile was added to a 96-well acrylic plate and analyzed by UV-Vis spectroscopy.

[3] = Mus musculus, B16, 72 h, read-out: IC50 (μM) B16, 72 h exposure, MTT, mean of three independent experiments
[4] = read-out: IC50 (μM) L1210, 72 h exposure, MTT, mean of three independent experiments
[5] = Mus musculus, L1210, 72 h, read-out: IC50 (μM) L1210, 72 h exposure, MTT, mean of three independent experiments
[6] = read-out: IC50 (μM) B16, 72 h exposure, MTT, mean of three independent experiments

SMILES | IC50 (B16 (melanoma) cells; [3]) [µM] | IC50 (L1210 (lymphoma) cells; [5]) [µM] | further results
COc1ccc(/C=C2\CNC/C(=C\c3ccc(OC)cc3)C2=O)cc1 [IA-4] | 25 to 65 |  | IC50 (B16 (melanoma) cells; read-out: IC50 (μM) B16, 72 h exposure, MTT, mean of three independent experiments, listed as 4d): 43 µM; IC50 (L1210 (lymphoma) cells; [4]): 35 ± 8 µM
COc1ccc(/C=C2\CN(Cc3ccccc3)C/C(=C\c3ccc(OC)c(OC)c3)C2=O)cc1OC [ID-7] | 2 ± 0.4 | 3.3 ± 0.1 | IC50 (B16 (melanoma) cells; read-out: IC50 (μM) B16, 72 h exposure, MTT, mean of three independent experiments, listed as 7g): 2.5 ± 0.4 µM
COc1ccc(/C=C2\CN(C)C/C(=C\c3ccc(OC)cc3)C2=O)cc1 [IB-4] | 23 | 62 | 
O=C1/C(=C/c2ccc([N+](=O)[O-])cc2)CNC/C1=C\c1ccc([N+](=O)[O-])cc1 [IA-3] | 15 | 0.3 | 
COc1ccc(/C=C2\CNC/C(=C\c3ccc(OC)c(OC)c3)C2=O)cc1OC [IA-7] | 2.3 ± 0.5 | 0.6 ± 0.2 | 
O=C1/C(=C/c2ccc([N+](=O)[O-])cc2)CN(Cc2ccccc2)C/C1=C\c1ccc([N+](=O)[O-])cc1 [ID-3] | 2.5 ± 0.7 | 2 ± 1 | 
COc1ccc(/C=C2\CN(c3ccccc3)C/C(=C\c3ccc(OC)cc3)C2=O)cc1 [IE-4, 3,5-Di(4-methoxybenzylidene)-1-phenylpiperidin-4-one] | 25 to 65 |  | melting point: 152 to 155 °C; IC50 (B16 (melanoma) cells; [6]): 37 ± 6 µM; IC50 (L1210 (lymphoma) cells; [4]): 55 ± 7 µM
Cc1ccc(/C=C2\CN(C(C)C)C/C(=C\c3ccc(C)cc3)C2=O)cc1 [IC-2] | 4 ± 2 | 2.5 ± 0.7 | 
Cc1ccc(/C=C2\CN(c3ccccc3)C/C(=C\c3ccc(C)cc3)C2=O)cc1 [IE-2, 3,5-Di(4-methylbenzylidene)-1-phenylpiperidin-4-one] | > 100 | > 100 | melting point: 173 to 176 °C
CC(C)N1C/C(=C\c2ccc([N+](=O)[O-])cc2)C(=O)/C(=C/c2ccc([N+](=O)[O-])cc2)C1 [IC-3] | 3.7 ± 0.6 | 0.9 ± 0.6 | 
O=C1/C(=C/c2ccccc2)CN(Cc2ccccc2)C/C1=C\c1ccccc1 [ID-1] | 3.1 ± 0.1 | 3.4 ± 0.5 | 
COc1cc(/C=C2\CN(C(C)C)C/C(=C\c3cc(OC)c(OC)c(OC)c3)C2=O)cc(OC)c1OC [IC-8] | 25 to 65 | 25 to 65 | IC50 (B16 (melanoma) cells; read-out: IC50 (μM) B16, 72 h exposure, MTT, mean of three independent experiments, listed as 6h): 25.6 µM; IC50 (L1210 (lymphoma) cells; read-out: IC50 (μM) L1210, 72 h exposure, MTT, mean of three independent experiments, listed as 6h): 47 µM and 47.1 µM
COc1cc(/C=C2\CN(C(C)C)C/C(=C\c3ccc(O)c(OC)c3)C2=O)ccc1O [IC-6] | 2.2 ± 0.2 | 2.2 ± 0.2 | 
COc1ccc(/C=C2\CN(c3ccccc3)C/C(=C\c3ccc(OC)c(OC)c3)C2=O)cc1OC [IE-7, 3,5-Di(3,4-dimethoxybenzylidene)-1-phenylpiperidin-4-one] | 1.3 ± 0.1 | 2.9 ± 0.9 | melting point: 144 to 148 °C
O=C1/C(=C/c2ccccc2)CNC/C1=C\c1ccccc1 [IA-1] | 5 ± 1 | 0.5 | IC50 (μM) B16 (B16 (melanoma) cells; 72 h exposure, MTT, mean of three independent experiments): _Ta
COc1cc(/C=C2\CNC/C(=C\c3ccc(O)c(OC)c3)C2=O)ccc1O [IA-6] | 1.3 ± 0.6 | 0.9 ± 0.4 | 
O=C1/C(=C/c2ccccc2)CN(c2ccccc2)C/C1=C\c1ccccc1 [IE-1] | 7 | 4 ± 2 | 
COc1ccc(/C=C2\CN(Cc3ccccc3)C/C(=C\c3ccc(OC)c(O)c3)C2=O)cc1O [ID-5] | 2.4 ± 0.5 | 3.1 ± 0.1 | 

SMILES | IC50 (B16 (melanoma) cells; [3]) [µM] | IC50 (L1210 (lymphoma) cells; [5]) [µM] | further results
COc1cc(/C=C2\CN(Cc3ccccc3)C/C(=C\c3cc(OC)c(OC)c(OC)c3)C2=O)cc(OC)c1OC [ID-8] | 2.4 | 3.6 | IC50 [1]: 0.76 µM; solubility at 6 h [2]: 210 ± 20 µM (≈ 115 µg/mL)
COc1ccc(/C=C2\CN(c3ccccc3)C/C(=C\c3ccc(OC)c(O)c3)C2=O)cc1O [IE-5, 3,5-Di(3-hydroxy-4-methoxybenzylidene)-1-phenylpiperidin-4-one] | 19 | 6 | melting point: 142 to 146 °C
COc1ccc(/C=C2\CN(C)C/C(=C\c3ccc(OC)c(O)c3)C2=O)cc1O [IB-5] | 1.3 to 2.1 | 0.8 to 1.9 | IC50 (B16 (melanoma) cells; [6]): 2.1 ± 0.1 µM; IC50 (L1210 (lymphoma) cells; [4]): 0.8 ± 0.4 µM
COc1ccc(/C=C2\CN(Cc3ccccc3)C/C(=C\c3ccc(OC)cc3)C2=O)cc1 [ID-4] | 27 | 8 | 
COc1ccc(/C=C2\CN(C)C/C(=C\c3ccc(OC)c(OC)c3)C2=O)cc1OC [IB-7] | 1.3 to 2.1 | 0.8 to 1.9 | IC50 (B16 (melanoma) cells; [6]): 1.3 ± 0.1 µM; IC50 (L1210 (lymphoma) cells; [4]): 1 ± 0.6 µM
COc1cc(/C=C2\CN(Cc3ccccc3)C/C(=C\c3ccc(O)c(OC)c3)C2=O)ccc1O [ID-6] | 2 ± 0.5 | 2.8 ± 0.4 | 
COc1cc(/C=C2\CN(c3ccccc3)C/C(=C\c3ccc(O)c(OC)c3)C2=O)ccc1O [IE-6, 3,5-Di(4-hydroxy-3-methoxybenzylidene)-1-phenylpiperidin-4-one] | 2.9 ± 0.4 | 2.8 ± 0.4 | melting point: 139 to 143 °C
COc1ccc(/C=C2\CN(C(C)C)C/C(=C\c3ccc(OC)c(O)c3)C2=O)cc1O [IC-5, 3,5-Di(3-hydroxy-4-methoxylbenzyliden)-1-isopropylpiperidin-4-one] | 1.1 | 0.4 | melting point: 165 to 168 °C
COc1cc(/C=C2\CN(C)C/C(=C\c3ccc(O)c(OC)c3)C2=O)ccc1O [IB-6] | 1.3 to 2.1 |  | IC50 (B16 (melanoma) cells; [6]): 1.8 ± 0.3 µM; IC50 (L1210 (lymphoma) cells; [4]): 1.9 ± 0.4 µM
Cc1ccc(/C=C2\CNC/C(=C\c3ccc(C)cc3)C2=O)cc1 [IB-2] |  |  | IC50 (B16 (melanoma) cells; [6]): 41 ± 6 µM; IC50 (L1210 (lymphoma) cells; [4]): 35 ± 5 µM
COc1cc(/C=C2\CN(C)C/C(=C\c3cc(OC)c(OC)c(OC)c3)C2=O)cc(OC)c1OC [IB-8] | 0.31 | 0.37 | IC50 [1]: 0.19 µM; IC50 (B16 (melanoma) cells; read-out: IC50 (μM) B16, 72 h exposure, MTT, mean of three independent experiments, listed as 5 h): ~0.3 µM; IC50 (L1210 (lymphoma) cells; read-out: IC50 (μM) L1210, 72 h exposure, MTT, mean of three independent experiments, listed as 5 h): ~0.3 µM; solubility at 6 h [2]: 160 ± 30 µM (≈ 75.1 µg/mL)
COc1ccc(/C=C2\CNC/C(=C\c3ccc(OC)c(O)c3)C2=O)cc1O [IA-5] | 3 ± 1 | 0.9 ± 0.3 | 
Cc1ccc(/C=C2\CN(Cc3ccccc3)C/C(=C\c3ccc(C)cc3)C2=O)cc1 [ID-2] | 14 | 9 | 
CN1C/C(=C\c2ccc([N+](=O)[O-])cc2)C(=O)/C(=C/c2ccc([N+](=O)[O-])cc2)C1 [IB-3] |  | 1.3 | IC50 (B16 (melanoma) cells; [6]): 41 ± 2 µM; IC50 (B16 (melanoma) cells; read-out: IC50 (μM) B16, 72 h exposure, MTT, mean of three independent experiments, listed as 5c): 4 µM
Cc1ccc(/C=C2\CNC/C(=C\c3ccc(C)cc3)C2=O)cc1 [IA-2] |  |  | IC50 (B16 (melanoma) cells; [6]): 8 ± 4 µM; IC50 (L1210 (lymphoma) cells; [4]): 3.1 ± 0.1 µM
CN1C/C(=C\c2ccccc2)C(=O)/C(=C/c2ccccc2)C1 [IB-1] | 5 ± 2 | 2.4 ± 0.3 | 
O=C1/C(=C/c2ccc([N+](=O)[O-])cc2)CN(c2ccccc2)C/C1=C\c1ccc([N+](=O)[O-])cc1 [IE-3, 3,5-Di(4-nitrobenzylidene)-1-phenylpiperidin-4-one] |  |  | melting point: 184 to 188 °C; IC50 (B16 (melanoma) cells; [6]): 65 ± 7 µM; IC50 (L1210 (lymphoma) cells; [4]): 65 ± 7 µM
COc1cc(/C=C2\CNC/C(=C\c3cc(OC)c(OC)c(OC)c3)C2=O)cc(OC)c1OC [IA-8] | 0.3 | 0.32 | IC50 [1]: 0.088 µM; IC50 (L1210 (lymphoma) cells; read-out: IC50 (μM) L1210, 72 h exposure, MTT, mean of three independent experiments, listed as 4h): ~0.3 µM; solubility at 6 h [2]: 70 ± 10 µM (≈ 31.9 µg/mL)
